One assay deals with INS1. Description: beta cell apoptosis inhibitors, cytokine rescue, dose response, luminescence, retest (AID 449756).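 Note: cell death triggered by IL-1 beta plus TNF-alpha plus IFN-gamma mixture; protective hits raise ATP signal compared with cytokine alone wells.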 Format: functional, cell-based. As to conditions: Rattus norvegicus.
Assay [1] can be described thus: inhibitors of firefly luciferase expression or activity, dose response, H4 neuroglioma cells, luminescence (AID 1990). Type of assay: functional, cell-based.
Assay [2] can be described thus: off-target signal loss in HeLa-CEM21 co-culture – HeLa F-luc CTL cells, cherry-picked, counter-screen for HIV-1 Env fusion inhibitor project, dose response (AID 652040).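 Note: potency for signal decrease marking cytotoxic or nonspecific inhibition.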 Format: functional, cell-based. In general terms: Counterscreens check selectivity or assay interference.
The next assay deals with HEK293. Description: inhibitors of LMP1-driven NF-kB reporter, dose response, cell-based, HEK293, luciferase, cherry-pick (AID 588343). Format: functional. As to conditions: Homo sapiens.
The nature of assay [3]: microbe, parasite or virus in culture. Type of assay: functional. As to conditions: Mycobacterium tuberculosis.
For the next assay, the target named is Paired box protein Pax-8 (Homo sapiens, UniProt Q06710). Put plainly: inhibitors of PAX8-driven TPO luciferase reporter, dose response, RMG-I cells, cherry-pick (AID 687027).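 Note: luciferase reporter driven by Pax8 target thyroperoxidase promoter measured by SteadyGlo luminescence.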 Format: functional, cell-based. Background: Reporter assays use an easily measured gene product as a stand-in for the process of interest.
Assay [4] in a line: inhibitors of clade B AD8 Env fusion, dose response, cell-based, cherry-pick (AID 652062).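 Note: luciferase signal from cell-cell fusion driven by HIV-1 clade B AD8 Env; potency is for inhibitors of fusion seen as a drop in luminescence.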 Type of assay: functional.
Assay [5] is described as follows: ZM109 Env clade C HIV-1 fusion inhibitors, dose response, HeLa effector, CEM target cells, luciferase, cherry-pick (AID 652058). Type of assay: functional, cell-based.
Assay [6] is described as follows: Luminescence Cell-Based Dose Retest to Confirm Inhibitors of Cancer Stem Cells. [Related pubchem assays (depositor defined):AID2717, AID2721]. The following applies: Homo sapiens. Type of assay: functional.
A short description of assay [7]: CEM21 lymphoblast cell cytotoxicity, dose response, cytotoxicity control for viral fusion inhibitor project, CellTiter-Glo luminescence, cherry-picked (AID 652042).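 Note: potency for signal decrease meaning cytotoxicity.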 Format: functional, cell-based.
Assay [8] can be described thus: inhibitors of HIV Env-driven cell fusion, dose response, cherry-pick (AID 652057). Format: functional, cell-based.
Assay [9] can be described thus: inhibitors of SNCA 5'UTR-driven reporter translation, confirmation, H4 neuroglioma cells, luminescence (AID 1988). Format: functional, cell-based.
A short description of assay [10]: Luminescence Cell-Based Dose Response HTS to Identify Inhibitors of 5'UTR Stem-Loop Driven Prion Protein mRNA Translation in H4 Neuroglioblastoma Cells. [Related pubchem assays: 1827 (Project Summary), 1813 (Primary HTS)]. Format: functional.
A short description of assay [11]: THP-1 cell cytotoxicity, dose response, cytotoxicity control for non-replicating M. tuberculosis project (AID 489025). Format: functional.
The nature of assay [12]: cells. Format: functional.
The nature of assay [13]: MC4R antagonists, dose response, counter-screen for LGR2 antagonist project, cell-based, plate reader, cherry pick (AID 743444).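 Note: transfected HEK 293 cells stimulated with alpha-MSH peptide; potency of inhibitors of the alpha-MSH evoked signal.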 Format: functional.
The nature of assay [14]: HepG2 cell cytotoxicity, dose response, cytotoxicity control, plate reader, cherry-pick, antagonist series (AID 743416). Format: functional, cell-based.
The nature of assay [15]: Vero E6 cell cytotoxicity, dose response, cytotoxicity control for non-replicating M. tuberculosis project, secondary assay (AID 492998). Format: functional, VeroE6. As to conditions: Vero C1008.
Assay [16] can be described thus: Luminescence Cell-Based Dose Confirmation HTS to Identify Inhibitors of Platelet Dense Granule Release. [Related pubchem assays: 1663 (Primary HTS), 1678 (Summary of Project)]. Type of assay: functional.
Assay [17] in a line: HEK293 cell cytotoxicity, dose response, cytotoxicity control, plate reader, cherry-picked samples (AID 743446). Type of assay: functional, cell-based.
Assay [18] concerns the target Luciferin 4-monooxygenase (Photinus pyralis, UniProt P08659). Description: firefly luciferase enzyme inhibitors, dose response, biochemical, luminescence (AID 1891).
The nature of assay [19]: LGR2 antagonists, dose response, cell-based, HEK293, CRE-luciferase reporter, cherry pick, set 2 (AID 743343).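 Note: transfected cells were stimulated with diluted bursicon conditioned medium after compound addition.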 Type of assay: functional.
The nature of assay [20]: A549 cell cytotoxicity, dose response, cytotoxicity control, plate reader, cherry-pick, antagonist series (AID 743412). Type of assay: functional, cell-based.
A further assay has as its target T1, Coagulation factor XII (Homo sapiens, UniProt P00748).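 Note: activated factor XIIa alpha cleaving a fluorogenic AMC peptide substrate; inhibitor potency from loss of enzyme activity.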
T1 sequence (P00748 whole entry): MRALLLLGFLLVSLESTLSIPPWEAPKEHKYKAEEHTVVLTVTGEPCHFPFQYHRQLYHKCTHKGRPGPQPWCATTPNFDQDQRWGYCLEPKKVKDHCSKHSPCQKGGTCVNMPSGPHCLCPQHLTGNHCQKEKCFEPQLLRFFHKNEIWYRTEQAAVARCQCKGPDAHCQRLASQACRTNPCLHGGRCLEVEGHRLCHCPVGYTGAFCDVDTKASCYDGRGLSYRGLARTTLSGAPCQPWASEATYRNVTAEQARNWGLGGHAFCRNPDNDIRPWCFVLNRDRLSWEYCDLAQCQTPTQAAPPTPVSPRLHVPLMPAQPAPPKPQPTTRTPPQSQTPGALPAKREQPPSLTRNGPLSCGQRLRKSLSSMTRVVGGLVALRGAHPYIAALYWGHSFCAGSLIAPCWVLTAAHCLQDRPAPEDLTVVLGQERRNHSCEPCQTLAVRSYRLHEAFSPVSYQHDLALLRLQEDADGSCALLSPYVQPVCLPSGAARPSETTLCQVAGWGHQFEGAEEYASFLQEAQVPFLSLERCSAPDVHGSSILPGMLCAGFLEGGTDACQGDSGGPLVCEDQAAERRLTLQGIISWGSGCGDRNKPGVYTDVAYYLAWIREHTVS
Format: functional.

The target of the next assay is Mu-type opioid receptor (Homo sapiens, UniProt P35372). Format: functional, cell-based.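 Note: U2OS cells with beta-arrestin recruitment to OPRM1 by beta-gal complementation.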
Assay [21] has as its target 5-hydroxytryptamine receptor 2A (Mus musculus, UniProt P35363). Format: functional, cell-based.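 Note: CHO-K1 cells with tagged receptor and beta-arrestin; agonist potency measured as compound-induced activation of the receptor.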
A short description of assay [22]: cells. Format: functional, cell-based.
Assay [23] has as its target T2, Nuclear receptor subfamily 0 group B member 1 (Homo sapiens, UniProt P51843).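 Note: HEK293T cells transfected with SF-1 and DAX-1 plus StAR promoter luciferase reporter.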
T2 sequence (P51843 whole entry): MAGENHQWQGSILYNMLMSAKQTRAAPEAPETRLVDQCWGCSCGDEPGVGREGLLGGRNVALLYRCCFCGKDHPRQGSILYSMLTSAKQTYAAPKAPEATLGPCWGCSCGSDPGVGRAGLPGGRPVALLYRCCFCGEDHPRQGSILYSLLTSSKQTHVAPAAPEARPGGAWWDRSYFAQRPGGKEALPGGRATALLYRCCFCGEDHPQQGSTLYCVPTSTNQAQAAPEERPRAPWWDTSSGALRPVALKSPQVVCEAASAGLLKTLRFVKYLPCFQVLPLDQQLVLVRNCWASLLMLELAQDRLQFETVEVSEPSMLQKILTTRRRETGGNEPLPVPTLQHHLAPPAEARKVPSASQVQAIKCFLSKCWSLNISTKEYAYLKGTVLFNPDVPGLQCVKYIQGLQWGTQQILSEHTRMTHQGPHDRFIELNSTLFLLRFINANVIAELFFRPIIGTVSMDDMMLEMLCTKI
Format: functional, cell-based.

Assay [24] in a line: NIH-3T3 fibroblast cytotoxicity, dose response, cytotoxicity control, cell-based, fluorescence, Alamar Blue, secondary assay (AID 2327).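 Note: NIH-3T3 mouse fibroblasts cultured with fluconazole at 8 µg/mL.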 Type of assay: functional.
Assay [25] can be described thus: C. albicans growth with fluconazole, confirmation, fluorescence, retest (AID 2467). Type of assay: functional, cell-based.

Activity calls are given as the source filed them. Some results are limits rather than exact numbers.

Luciferin 4-monooxygenase, sequence (P08659 whole entry): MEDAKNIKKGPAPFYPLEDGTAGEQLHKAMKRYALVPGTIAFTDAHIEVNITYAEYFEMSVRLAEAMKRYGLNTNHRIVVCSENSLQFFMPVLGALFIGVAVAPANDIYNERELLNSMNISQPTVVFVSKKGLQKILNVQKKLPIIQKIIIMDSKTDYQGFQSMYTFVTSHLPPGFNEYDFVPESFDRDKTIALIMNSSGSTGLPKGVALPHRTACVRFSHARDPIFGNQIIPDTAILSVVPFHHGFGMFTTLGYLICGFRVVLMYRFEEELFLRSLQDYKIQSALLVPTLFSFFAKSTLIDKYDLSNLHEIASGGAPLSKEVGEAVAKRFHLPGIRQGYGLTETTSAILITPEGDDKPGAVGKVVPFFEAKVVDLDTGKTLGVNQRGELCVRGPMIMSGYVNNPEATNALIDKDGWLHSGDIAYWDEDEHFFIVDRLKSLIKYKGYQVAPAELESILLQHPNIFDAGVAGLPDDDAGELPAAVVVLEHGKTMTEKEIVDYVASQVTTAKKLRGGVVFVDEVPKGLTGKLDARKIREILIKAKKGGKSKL
Paired box protein Pax-8, sequence (Q06710 whole entry, the tested form may be a part): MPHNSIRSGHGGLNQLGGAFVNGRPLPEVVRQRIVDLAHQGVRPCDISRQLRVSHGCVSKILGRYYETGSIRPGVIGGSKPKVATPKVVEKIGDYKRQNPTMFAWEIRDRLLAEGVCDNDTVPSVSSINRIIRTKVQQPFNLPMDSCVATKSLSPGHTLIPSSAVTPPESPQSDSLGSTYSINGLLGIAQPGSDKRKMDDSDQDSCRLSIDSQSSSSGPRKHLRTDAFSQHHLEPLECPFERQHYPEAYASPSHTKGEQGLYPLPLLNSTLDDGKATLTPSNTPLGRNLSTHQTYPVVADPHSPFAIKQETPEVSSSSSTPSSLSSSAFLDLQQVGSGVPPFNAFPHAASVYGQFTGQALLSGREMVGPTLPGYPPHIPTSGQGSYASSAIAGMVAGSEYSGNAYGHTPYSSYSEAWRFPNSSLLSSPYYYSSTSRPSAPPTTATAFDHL
5-hydroxytryptamine receptor 2A, sequence (P35363 whole entry): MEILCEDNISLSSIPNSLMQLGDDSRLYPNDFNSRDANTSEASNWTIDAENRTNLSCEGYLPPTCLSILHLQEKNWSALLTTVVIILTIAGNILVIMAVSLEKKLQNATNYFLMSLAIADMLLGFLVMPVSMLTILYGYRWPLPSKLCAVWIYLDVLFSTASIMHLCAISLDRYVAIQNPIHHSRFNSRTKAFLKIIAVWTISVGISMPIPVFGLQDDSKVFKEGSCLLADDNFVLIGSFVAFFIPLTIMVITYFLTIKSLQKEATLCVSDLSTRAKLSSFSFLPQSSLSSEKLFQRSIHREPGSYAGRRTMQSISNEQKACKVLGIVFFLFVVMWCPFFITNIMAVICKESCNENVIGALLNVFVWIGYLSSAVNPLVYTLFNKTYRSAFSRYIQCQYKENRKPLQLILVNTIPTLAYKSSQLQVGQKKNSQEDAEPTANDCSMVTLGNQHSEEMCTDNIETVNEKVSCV
Mu-type opioid receptor, sequence (P35372 whole entry): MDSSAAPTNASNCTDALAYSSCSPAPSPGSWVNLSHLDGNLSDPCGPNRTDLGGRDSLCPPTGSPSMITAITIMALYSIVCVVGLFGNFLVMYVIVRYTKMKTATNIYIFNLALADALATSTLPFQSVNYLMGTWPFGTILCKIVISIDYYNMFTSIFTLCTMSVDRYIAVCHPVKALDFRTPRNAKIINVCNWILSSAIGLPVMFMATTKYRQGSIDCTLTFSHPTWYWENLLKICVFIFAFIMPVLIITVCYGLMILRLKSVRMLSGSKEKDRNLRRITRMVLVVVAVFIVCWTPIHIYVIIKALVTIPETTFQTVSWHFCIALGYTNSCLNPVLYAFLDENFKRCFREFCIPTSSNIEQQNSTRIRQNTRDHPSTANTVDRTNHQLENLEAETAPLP

Usually AC50 stands for the midpoint of the concentration-response curve, whichever way the signal moves. One may read the EC50 as the concentration needed to bring the measured effect to its halfway point. As for `CCN(CC)S(=O)(=O)c1cccc(NC(=O)Nc2cccc(C(F)(F)F)c2)c1`, the AC50 was 5.03 µM (active) with INS1; 7.47 µM (active) in [2]; 21.4 µM (active) in the assay with HEK293; 14.9 µM (active) on Paired box protein Pax-8; 10.4 µM (active) in [4]; < 0.26 µM (active) in assay [5]. Further, the AC50 in [6] is 3.36 µM (active); in assay [7], 13.6 µM (active); in [8] it was 0.542 µM (active). Further, the EC50 in [1], in assay [9] and in [10] was > 120 µM (not active) each time. Besides, the CC50 in assay [3] was 13.8 µM (active).
By IC50 is commonly meant the point on the concentration scale where inhibition reaches its midpoint. As to `Cc1cnc(NC(=O)c2ccccn2)s1`, the CC50 in [11] is > 40 µM (active); in [15], > 20 µM (active). The IC50 in “cells [12]” is 4.77 µM (active). The AC50 in assay [13] was 6.72 µM (active); in assay [14], 27.8 µM (active); in the assay on HEK293 it was 8.48 µM (active); in [17], 30.8 µM (active); in assay [19], 7.9 µM (active); in assay [20], 24 µM (active). Moreover, the EC50 in assay [16] is 18 µM (active); in assay [18], 34.9 µM (active).
As for `O=C(CN1CCN(c2ccccn2)CC1)Nc1ccc(Oc2ccccc2)cc1`, the IC50 on Coagulation factor XII was > 50 µM (inactive). The EC50 at Mu-type opioid receptor was 92.4 µM (inactive); in assay [21], 1.17 µM (active).
For the compound `O=C(O)c1cc(/C=C/c2ccc(N3CCOCC3)cc2)nc2ccccc12`, the IC50 (in “cells [22]”; in [23]) was > 67.5 µM (inactive) in each case. Moreover, in the assay with HEK293, the AC50 was 3.14 µM (active).
On to `CC(=O)Oc1ccc2c(=O)c(-c3nc4ccccc4s3)coc2c1`, for which the EC50 in assay [24] was > 150 µM (inactive); in [25], 3.08 µM (active); in assay [16], 3.83 µM (active); in [18] it was 3.63 µM (active). Also, the IC50 (in “cells [22]”; in assay [23]) was > 67.5 µM (inactive) each time. The AC50 in [6] is 6.27 µM (active).
Take `CCOCC(=O)NC1CCc2cc(OC(=O)COCC)c(OC)c(OC)c2-c2ccc(SC)c(=O)cc21` (stereo not given): the IC50 was > 67.5 µM (inactive) in “cells [22]” and 0.244 µM (active) in [23]. Also, the AC50 at Paired box protein Pax-8 is < 0.26 µM (active).
